This test relates to Plasmopara viticola. In words: Plasmopara viticola/Grape/Curative (Grape Downy Mildew). The format is in vivo. The conditions noted are these: 200 ppm; grape seedlings cv. Gutedel, inoculated one day before application; compared to untreated. On the procedure:
Plasmopara viticola/Grape/Curative (Grape Downy Mildew)
5-week-old grape seedlings cv. Gutedel are inoculated by spraying a sporangia suspension on their lower leaf surface one day before application. The inoculated grape plants are sprayed in a spray chamber with the formulated test compound diluted in water. The inoculated test plants are incubated at 22° C. and 100% rh in a greenhouse and the percentage leaf area covered by disease is assessed when an appropriate level of disease appears on untreated check plants (4-6 days after application).

As to `CSC1CN(C(=O)Cn2nc(C(F)F)cc2C(F)F)CCC1c1nc(C2=NOC(c3c(F)cccc3F)C2)cs1` (stereo not shown) [I.az.223, 2-[3,5-bis(difluoromethyl)pyrazol-1-yl]-1-[4-[4-[5-(2,6-difluorophenyl)-4,5-dihydroisoxazol-3-yl]thiazol-2-yl]-3-methylsulfanyl-1-piperidyl]ethanone], the disease control entry is reported as “at least 80%”.

Values taken from patent US20150031541A1 (priority 2012, published 2015).
